Data published in patent US9108999B2, “2′, 4′-difluoro-2′-methyl substituted nucleoside derivatives as inhibitors of HCV RNA replication” (priority 2011, dated 2015).
Read-outs that look alike come from different tables or passages of the source.

What was measured:
[1] = in vitro; settings: human
[2] = system: genotype 1b replicon construct NK5.1 (HCV subgenomic RNA) in Huh7 cell line 2209-23; assay: microbe, parasite or virus in culture; format: cell-based, Hepatitis C Virus; settings: read-out: HCV Replicon IC50
[3] = system: HCV replicon cells (2209-23); settings: read-out: WST-1 Cytotoxicity CC50; replicon cells 2209-23, three days incubation, WST-1 OD 450 nm
[4] = Hepatitis C virus, Huh-7, 72 h, Huh7 replicon cells 2209-23, three days incubation, Renilla luciferase readout
[5] = Huh7 replicon cells 2209-23, three days incubation, Renilla luciferase readout

SMILES	CC50 at 3 days [1] [µM]	IC50 [2, 4] [nM]	IC50 ([2]; Hepatitis C virus, Huh-7, 72 h) [nM]	IC50 [2, 5] [nM]	CC50 [3] [µM]
CC(C)OC(=O)[C@H](C)NP(=O)(OC[C@@]1(F)O[C@@H](n2ccc(=O)[nH]c2=O)[C@](C)(F)[C@@H]1O)Oc1ccccc1 (stereo partly drawn) [Compound I-1, (S)-2-{[(2S,3S,4R,5R)-5-(2,4-Dioxo-3,4-dihydro-2H-pyrimidin-1-yl)-2,4-difluoro-3-hydroxy-4-methyl-tetrahydro-furan-2-ylmethoxy]-phenoxy-phosphorylamino}-propionic acid isopropyl ester]	> 100				
CC(C)OC(=O)[C@H](C)NP(=O)(OC[C@@]1(F)O[C@@H](n2ccc(=O)[nH]c2=O)[C@](C)(F)[C@@H]1O)Oc1cccc2ccccc12 (stereo partly drawn) [Compound I-2, (S)-2-[[(2S,3S,4R,5R)-5-(2,4-Dioxo-3,4-dihydro-2H-pyrimidin-1-yl)-2,4-difluoro-3-hydroxy-4-methyl-tetrahydro-furan-2-ylmethoxy]-(naphthalen-1-yloxy)-phosphorylamino]-propionic acid isopropyl ester]	> 100	115			
CC(C)OC(=O)[C@H](C)NP(=O)(OC[C@@]1(F)O[C@@H](n2ccc(=O)[nH]c2=O)[C@](C)(F)[C@@H]1O)Oc1ccc2ccccc2c1 (stereo partly drawn) [Compound I-3, (S)-2-[[(2S,3S,4R,5R)-5-(2,4-Dioxo-3,4-dihydro-2H-pyrimidin-1-yl)-2,4-difluoro-3-hydroxy-4-methyl-tetrahydro-furan-2-ylmethoxy]-(naphthalen-2-yloxy)-phosphorylamino]-propionic acid isopropyl ester]	> 100				
CC(C)OC(=O)[C@H](C)NP(=O)(OC[C@@]1(F)O[C@@H](n2ccc(=O)[nH]c2=O)[C@](C)(F)[C@@H]1OP(=O)(N[C@@H](C)C(=O)OC(C)C)Oc1ccc2ccccc2c1)Oc1ccc2ccccc2c1 (stereo partly drawn) [Compound I-4, (S)-2-[[(2S,3S,4R,5R)-5-(2,4-dioxo-3,4-dihydro-2H-pyrimidin-1-yl)-2,4-difluoro-3-[((S)-1-isopropoxycarbonyl-ethylamino)-(naphthalen-2-yloxy)-phosphoryloxy]-4-methyl-tetrahydro-furan-2-ylmethoxy]-(naphthalen-2-yloxy)-phosphorylamino]-propionic acid isopropyl ester]	> 100		7190		
CCC(=O)O[C@H]1[C@@](C)(F)[C@H](n2ccc(=O)[nH]c2=O)O[C@]1(F)COP(=O)(N[C@@H](C)C(=O)OC(C)C)Oc1cccc2ccccc12 (stereo partly drawn) [Compound I-5, (S)-2-[[(2S,3S,4R,5R)-5-(2,4-Dioxo-3,4-dihydro-2H-pyrimidin-1-yl)-2,4-difluoro-4-methyl-3-propionyloxy-tetrahydro-furan-2-ylmethoxy]-(naphthalen-1-yloxy)-phosphorylamino]-propionic acid isopropyl ester]	67.8	152			
CC(C)OC(=O)[C@H](C)N[P@](=O)(OC[C@@]1(F)O[C@@H](n2ccc(=O)[nH]c2=O)[C@](C)(F)[C@@H]1O)Oc1ccc2ccccc2c1 [Compound I-6]	> 100		53.7		
CC(C)OC(=O)[C@H](C)N[P@@](=O)(OC[C@@]1(F)O[C@@H](n2ccc(=O)[nH]c2=O)[C@](C)(F)[C@@H]1O)Oc1ccc2ccccc2c1 [Compound I-7]				202	> 100
CC(C)OC(=O)[C@H](C)N[P@@](=O)(OC[C@@]1(F)O[C@@H](n2ccc(=O)[nH]c2=O)[C@](C)(F)[C@@H]1O)Oc1cccc2ccccc12 [Compound I-8, (S)-2-[(R)-[(2S,3S,4R,5R)-5-(2,4-Dioxo-3,4-dihydro-2H-pyrimidin-1-yl)-2,4-difluoro-3-hydroxy-4-methyl-tetrahydro-furan-2-ylmethoxy]-(naphthalen-1-yloxy)-phosphorylamino]-propionic acid isopropyl ester]				1030	> 100
CC(C)OC(=O)[C@H](C)N[P@](=O)(OC[C@@]1(F)O[C@@H](n2ccc(=O)[nH]c2=O)[C@](C)(F)[C@@H]1O)Oc1cccc2ccccc12 [Compound I-9, (S)-2-[(S)-[(2S,3S,4R,5R)-5-(2,4-Dioxo-3,4-dihydro-2H-pyrimidin-1-yl)-2,4-difluoro-3-hydroxy-4-methyl-tetrahydro-furan-2-ylmethoxy]-(naphthalen-1-yloxy)-phosphorylamino]-propionic acid isopropyl ester]	> 100	60.2			
CC(C)OC(=O)[C@H](C)N[P@](=O)(OC[C@@]1(F)O[C@@H](n2ccc(=O)[nH]c2=O)[C@](C)(F)[C@@H]1O)Oc1ccccc1 [Compound I-10, (S)-2-{(S)-[(2S,3S,4R,5R)-5-(2,4-Dioxo-3,4-dihydro-2H-pyrimidin-1-yl)-2,4-difluoro-3-hydroxy-4-methyl-tetrahydro-furan-2-ylmethoxy]-phenoxy-phosphorylamino}-propionic acid isopropyl ester]	> 100	171			
CC(C)OC(=O)[C@H](C)N[P@@](=O)(OC[C@@]1(F)O[C@@H](n2ccc(=O)[nH]c2=O)[C@](C)(F)[C@@H]1O)Oc1ccccc1 [Compound I-11, (S)-2-{(R)-[(2S,3S,4R,5R)-5-(2,4-Dioxo-3,4-dihydro-2H-pyrimidin-1-yl)-2,4-difluoro-3-hydroxy-4-methyl-tetrahydro-furan-2-ylmethoxy]-phenoxy-phosphorylamino}-propionic acid isopropyl ester]	95.6	1310			
CC(C)OC(=O)[C@H](C)N[P@](=O)(OC[C@@]1(F)O[C@@H](n2cc(Br)c(=O)[nH]c2=O)[C@](C)(F)[C@@H]1O)Oc1cccc2ccccc12 [Compound I-12, (S)-2-[(S)-[(2S,3S,4R,5R)-5-(5-Bromo-2,4-dioxo-3,4-dihydro-2H-pyrimidin-1-yl)-2,4-difluoro-3-hydroxy-4-methyl-tetrahydro-furan-2-ylmethoxy]-(naphthalen-1-yloxy)-phosphorylamino]-propionic acid isopropyl ester]	34.8	17400			
CC(C)OC(=O)[C@H](C)N[P@](=O)(OC[C@@]1(F)O[C@@H](n2cc(Br)c(=O)[nH]c2=O)[C@](C)(F)[C@@H]1O)Oc1ccc2ccccc2c1 [Compound I-13]	> 100		38500		
CC(C)OC(=O)[C@H](C)N[P@@](=O)(OC[C@@]1(F)O[C@@H](n2cc(Br)c(=O)[nH]c2=O)[C@](C)(F)[C@@H]1O)Oc1cccc2ccccc12 [Compound I-14, (S)-2-[(R)-[(2S,3S,4R,5R)-5-(5-Bromo-2,4-dioxo-3,4-dihydro-2H-pyrimidin-1-yl)-2,4-difluoro-3-hydroxy-4-methyl-tetrahydro-furan-2-ylmethoxy]-(naphthalen-1-yloxy)-phosphorylamino]-propionic acid isopropyl ester]				9640	50.8
CC(C)OC(=O)[C@H](C)N[P@@](=O)(OC[C@@]1(F)O[C@@H](n2cc(Br)c(=O)[nH]c2=O)[C@](C)(F)[C@@H]1O)Oc1ccc2ccccc2c1 [Compound I-15]				13200	38.5
CC(C)OC(=O)[C@H](C)NP(=O)(OC[C@@]1(F)O[C@@H](n2cc(Br)c(=O)[nH]c2=O)[C@](C)(F)[C@@H]1O)Oc1ccc2ccccc2c1 (stereo partly drawn) [Compound I-16, (S)-2-[[(2S,3S,4R,5R)-5-(5-Bromo-2,4-dioxo-3,4-dihydro-2H-pyrimidin-1-yl)-2,4-difluoro-3-hydroxy-4-methyl-tetrahydro-furan-2-ylmethoxy]-(naphthalen-2-yloxy)-phosphorylamino]-propionic acid isopropyl ester]	> 100		77600		
